Measurements as given in ChEMBL document CHEMBL1201862, “PubChem BioAssay data set” (2004).
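Grown in 96-well plates, cells were treated for 48 hours with each compound at five concentrations. Insufficient inhibition: endpoint recorded as highest concentration tested. GI50 = concentration required for 50% inhibition of growth.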 Active and inactive are the calls of the source. No stated cut-off is given here; in the data, active = GI50 up to about 1.1 µM and inactive = higher.

Assays:
Experiment in all cases: inhibition of tumour cell growth, NCI panel, 48 h
[1] = tested on: 786-0
[2] = tested on: A498
[3] = tested on: A549
[4] = tested on: ACHN
[5] = tested on: BT-549
[6] = tested on: CAKI-1
[7] = tested on: CCRF-CEM
[8] = tested on: COLO 205
[9] = tested on: DU-145
[10] = tested on: EKVX
[11] = tested on: HCC 2998
[12] = tested on: HCT-116
[13] = tested on: HCT-15
[14] = tested on: HL-60
[15] = tested on: HOP-62
[16] = tested on: HOP-92
[17] = tested on: HT-29
[18] = tested on: Hs-578T
[19] = tested on: IGROV-1
[20] = tested on: K562
[21] = tested on: KM12
[22] = tested on: LOX IMVI
[23] = tested on: M14
[24] = tested on: MDA-MB-231
[25] = tested on: MDA-MB-435
[26] = tested on: Malme-3M
[27] = tested on: NCI-H226
[28] = tested on: NCI-H23
[29] = tested on: NCI-H522
[30] = tested on: NCI/ADR-RES
[31] = tested on: OVCAR-3
[32] = tested on: OVCAR-4
[33] = tested on: OVCAR-5
[34] = tested on: OVCAR-8
[35] = tested on: PC-3
[36] = tested on: RPMI-8226
[37] = tested on: RXF 393
[38] = tested on: SF-268
[39] = tested on: SF-295
[40] = tested on: SF-539
[41] = tested on: SK-MEL-28
[42] = tested on: SK-MEL-5
[43] = tested on: SK-OV-3
[44] = tested on: SN12C
[45] = tested on: SNB-19
[46] = tested on: SR
[47] = tested on: SW-620
[48] = tested on: T47D
[49] = tested on: TK-10
[50] = tested on: U-251
[51] = tested on: UACC-257
[52] = tested on: UACC-62
[53] = tested on: UO-31
[54] = tested on: MCF7
[55] = tested on: MOLT-4
[56] = tested on: NCI-H460
[57] = tested on: SK-MEL-2
[58] = tested on: SNB-75

Cn1c2ccccc2c2ccc3c(c21)C(=O)c1ccccc1C3=O
GI50 [1]: 17.6 µM (inactive) | GI50 [2]: > 10 µM (inactive) | GI50 [3]: 24.7 µM (inactive) | GI50 [4]: 12.4 µM (inactive) | GI50 [5]: 21.1 µM (inactive) | GI50 [6]: 22.2 µM (inactive) | GI50 [7]: 3.02 µM (inactive) | GI50 [8]: 26.6 µM (inactive) | GI50 [9]: 84.5 µM (inactive) | GI50 [10]: 12.5 µM (inactive) | GI50 [11]: 41.9 µM (inactive) | GI50 [12]: 17.3 µM (inactive) | GI50 [13]: 15.1 µM | GI50 [14]: 2.75 µM (inactive) | GI50 [15]: 18 µM (inactive) | GI50 [16]: 18.9 µM (inactive) | GI50 [17]: 16.9 µM (inactive) | GI50 [18]: 14.1 µM (inactive) | GI50 [19]: 13.8 µM (inactive) | GI50 [20]: 11.8 µM (inactive) | GI50 [21]: 27.8 µM (inactive) | GI50 [22]: 15.9 µM (inactive) | GI50 [23]: 27.2 µM (inactive) | GI50 [24]: 19.5 µM (inactive) | GI50 [25]: 16 µM (inactive) | GI50 [26]: 5.86 µM (inactive) | GI50 [27]: 30.1 µM (inactive) | GI50 [28]: 15.7 µM (inactive) | GI50 [29]: 15.1 µM (inactive) | GI50 [30]: 13.7 µM (inactive) | GI50 [31]: 12.9 µM (inactive) | GI50 [32]: 17.5 µM (inactive) | GI50 [33]: > 100 µM (inactive) | GI50 [34]: 17.3 µM (inactive) | GI50 [35]: 13 µM (inactive) | GI50 [36]: 12.2 µM (inactive) | GI50 [37]: 15.8 µM (inactive) | GI50 [38]: 18.7 µM (inactive) | GI50 [39]: 18.2 µM (inactive) | GI50 [40]: 17.3 µM (inactive) | GI50 [41]: 14.6 µM (inactive) | GI50 [42]: 13.2 µM (inactive) | GI50 [43]: 15.8 µM (inactive) | GI50 [44]: 20.6 µM (inactive) | GI50 [45]: 37.8 µM (inactive) | GI50 [46]: 3.29 µM (inactive) | GI50 [47]: 28.2 µM (inactive) | GI50 [48]: 11.7 µM (inactive) | GI50 [49]: 14.4 µM (inactive) | GI50 [50]: 16.4 µM (inactive) | GI50 [51]: 19.5 µM (inactive) | GI50 [52]: 16.7 µM (inactive) | GI50 [53]: 25.5 µM (inactive)

CC12CCc3ccccc3C1=Nc1ccccc12 (stereo not drawn)
GI50 [1]: 49.2 µM (inactive) | GI50 [3]: 73.5 µM (inactive) | GI50 [4]: 64.7 µM (inactive) | GI50 [5]: 17.8 µM (inactive) | GI50 [6]: 17.7 µM (inactive) | GI50 [7]: 25.1 µM (inactive) | GI50 [8]: 42.8 µM (inactive) | GI50 [9]: > 100 µM (inactive) | GI50 [10]: 25.1 µM (inactive) | GI50 [12]: 32.7 µM (inactive) | GI50 [13]: 38.1 µM | GI50 [14]: 28.8 µM (inactive) | GI50 [15]: 86.1 µM (inactive) | GI50 [16]: 12.9 µM (inactive) | GI50 [17]: 29.9 µM (inactive) | GI50 [18]: 2.14 µM (inactive) | GI50 [19]: 71.1 µM (inactive) | GI50 [20]: 31 µM (inactive) | GI50 [21]: 24.1 µM (inactive) | GI50 [22]: 40.8 µM (inactive) | GI50 [23]: 32.3 µM (inactive) | GI50 [54]: 48.6 µM (inactive) | GI50 [24]: 24.2 µM (inactive) | GI50 [25]: 25.3 µM (inactive) | GI50 [55]: 30.4 µM (inactive) | GI50 [26]: 28.1 µM (inactive) | GI50 [27]: 21.8 µM (inactive) | GI50 [28]: 31.1 µM (inactive) | GI50 [56]: 37.3 µM (inactive) | GI50 [29]: 23.7 µM (inactive) | GI50 [30]: 22.4 µM (inactive) | GI50 [31]: 15.3 µM (inactive) | GI50 [32]: 41.3 µM (inactive) | GI50 [33]: > 100 µM (inactive) | GI50 [34]: 42.5 µM (inactive) | GI50 [35]: 14.3 µM (inactive) | GI50 [37]: 74.3 µM (inactive) | GI50 [38]: 98.2 µM (inactive) | GI50 [39]: 44.4 µM (inactive) | GI50 [40]: 14.2 µM (inactive) | GI50 [41]: 90.2 µM (inactive) | GI50 [57]: 47.9 µM (inactive) | GI50 [42]: 12.6 µM (inactive) | GI50 [43]: > 100 µM (inactive) | GI50 [44]: 0.164 µM (active) | GI50 [45]: > 100 µM (inactive) | GI50 [58]: > 100 µM (inactive) | GI50 [46]: 45.3 µM (inactive) | GI50 [47]: 45.9 µM (inactive) | GI50 [48]: 21.1 µM (inactive) | GI50 [49]: 53.8 µM (inactive) | GI50 [50]: 44.6 µM (inactive) | GI50 [51]: 49.8 µM (inactive) | GI50 [52]: 29.4 µM (inactive) | GI50 [53]: 24.3 µM (inactive)

N#Cc1ccc(Oc2nc3ccccc3nc2C(=O)O)cc1
GI50 [1]: > 100 µM (inactive) | GI50 [2]: > 100 µM (inactive) | GI50 [3]: > 100 µM (inactive) | GI50 [4]: > 100 µM (inactive) | GI50 [5]: > 100 µM (inactive) | GI50 [6]: > 100 µM (inactive) | GI50 [7]: > 100 µM (inactive) | GI50 [8]: > 100 µM (inactive) | GI50 [9]: > 100 µM (inactive) | GI50 [10]: > 100 µM (inactive) | GI50 [11]: > 100 µM (inactive) | GI50 [12]: > 100 µM (inactive) | GI50 [13]: > 100 µM | GI50 [14]: > 100 µM (inactive) | GI50 [15]: > 100 µM (inactive) | GI50 [16]: > 100 µM (inactive) | GI50 [17]: > 100 µM (inactive) | GI50 [18]: > 100 µM (inactive) | GI50 [19]: > 100 µM (inactive) | GI50 [20]: > 100 µM (inactive) | GI50 [21]: > 100 µM (inactive) | GI50 [22]: > 100 µM (inactive) | GI50 [23]: > 100 µM (inactive) | GI50 [24]: > 100 µM (inactive) | GI50 [25]: > 100 µM (inactive) | GI50 [55]: > 100 µM (inactive) | GI50 [26]: > 100 µM (inactive) | GI50 [27]: > 100 µM (inactive) | GI50 [28]: > 100 µM (inactive) | GI50 [56]: > 100 µM (inactive) | GI50 [29]: > 100 µM (inactive) | GI50 [30]: > 100 µM (inactive) | GI50 [31]: > 100 µM (inactive) | GI50 [32]: > 100 µM (inactive) | GI50 [33]: > 100 µM (inactive) | GI50 [34]: > 100 µM (inactive) | GI50 [35]: > 100 µM (inactive) | GI50 [36]: > 100 µM (inactive) | GI50 [37]: > 100 µM (inactive) | GI50 [38]: > 100 µM (inactive) | GI50 [39]: > 100 µM (inactive) | GI50 [41]: > 100 µM (inactive) | GI50 [57]: > 100 µM (inactive) | GI50 [42]: > 100 µM (inactive) | GI50 [43]: > 100 µM (inactive) | GI50 [45]: > 100 µM (inactive) | GI50 [58]: > 100 µM (inactive) | GI50 [46]: > 100 µM (inactive) | GI50 [47]: > 100 µM (inactive) | GI50 [48]: > 100 µM (inactive) | GI50 [49]: > 100 µM (inactive) | GI50 [50]: > 100 µM (inactive) | GI50 [51]: > 100 µM (inactive) | GI50 [52]: > 100 µM (inactive) | GI50 [53]: > 100 µM (inactive)

CSc1nc(O)c(C#N)c(-c2ccc(Cl)cc2)n1
GI50 [1]: > 100 µM (inactive) | GI50 [2]: 74.6 µM (inactive) | GI50 [3]: > 100 µM (inactive) | GI50 [4]: > 100 µM (inactive) | GI50 [5]: > 100 µM (inactive) | GI50 [6]: > 100 µM (inactive) | GI50 [7]: 61 µM (inactive) | GI50 [8]: > 100 µM (inactive) | GI50 [9]: > 100 µM (inactive) | GI50 [10]: > 100 µM (inactive) | GI50 [11]: > 100 µM (inactive) | GI50 [12]: 72.1 µM (inactive) | GI50 [13]: > 100 µM | GI50 [14]: 35.5 µM (inactive) | GI50 [15]: > 100 µM (inactive) | GI50 [16]: 24.8 µM (inactive) | GI50 [17]: > 100 µM (inactive) | GI50 [18]: 64.9 µM (inactive) | GI50 [19]: > 100 µM (inactive) | GI50 [20]: > 100 µM (inactive) | GI50 [21]: > 100 µM (inactive) | GI50 [23]: > 100 µM (inactive) | GI50 [54]: > 100 µM (inactive) | GI50 [24]: > 100 µM (inactive) | GI50 [25]: > 100 µM (inactive) | GI50 [55]: > 100 µM (inactive) | GI50 [27]: > 100 µM (inactive) | GI50 [28]: > 100 µM (inactive) | GI50 [56]: > 100 µM (inactive) | GI50 [29]: 51.8 µM (inactive) | GI50 [30]: > 100 µM (inactive) | GI50 [31]: > 100 µM (inactive) | GI50 [32]: > 100 µM (inactive) | GI50 [33]: > 100 µM (inactive) | GI50 [34]: > 100 µM (inactive) | GI50 [35]: 91.4 µM (inactive) | GI50 [36]: 80.4 µM (inactive) | GI50 [37]: 66.7 µM (inactive) | GI50 [38]: > 100 µM (inactive) | GI50 [39]: > 100 µM (inactive) | GI50 [40]: > 100 µM (inactive) | GI50 [41]: > 100 µM (inactive) | GI50 [57]: > 100 µM (inactive) | GI50 [42]: > 100 µM (inactive) | GI50 [43]: > 100 µM (inactive) | GI50 [44]: > 100 µM (inactive) | GI50 [45]: 77.4 µM (inactive) | GI50 [58]: 93.8 µM (inactive) | GI50 [47]: > 100 µM (inactive) | GI50 [48]: 43.7 µM (inactive) | GI50 [49]: > 100 µM (inactive) | GI50 [50]: 97.9 µM (inactive) | GI50 [51]: > 100 µM (inactive) | GI50 [52]: 73.6 µM (inactive) | GI50 [53]: 36.5 µM (inactive)
